The target in the assay is T1, LmjIPCS (inositol phosphorylceramide synthase from L. major) (Leishmania major, UniProt E9AFX2).
T1 sequence (E9AFX2 1-338): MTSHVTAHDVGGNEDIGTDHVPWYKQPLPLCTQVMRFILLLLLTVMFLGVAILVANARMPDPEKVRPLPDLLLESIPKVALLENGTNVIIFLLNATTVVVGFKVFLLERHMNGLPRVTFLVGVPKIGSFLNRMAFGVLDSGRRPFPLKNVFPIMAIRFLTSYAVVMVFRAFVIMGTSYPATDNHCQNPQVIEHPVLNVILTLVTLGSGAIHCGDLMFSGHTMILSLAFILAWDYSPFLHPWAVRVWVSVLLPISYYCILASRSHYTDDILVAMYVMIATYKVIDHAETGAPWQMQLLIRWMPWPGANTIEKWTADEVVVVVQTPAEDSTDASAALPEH
As to the kind of experiment: biochemical. Type of assay: biochemical. Also on record: inhibition: dose or concentration left out as unconfirmed. Particulars: for inhibition at 20000 µM: read-out: 20mM inhibition LmjIPCS; for inhibition: read-out: inhibition LmjIPCS.

Where [1] appears, read: screening of NINDS set, sheet Screen 1.
[2] abbreviates: NINDS set screen, single concentration printed as 20mM.

Molecules are shown by their SMILES. Like-named read-outs stand apart in the source and are kept apart here.

The term inhibition denotes the drop in the measured response relative to a control, in per cent.

In the case of `c1ccc(CC2=NCCN2)cc1` [TOLAZOLINE], the inhibition at 20000 µM amounted to 2.77%. With `COc1c(N2C[C@@H]3CCCN[C@@H]3C2)c(F)cc2c(=O)c(C(=O)O)cn(C3CC3)c12` [MOXIFLOXACIN], the inhibition at 20000 µM worked out at 16%.

Consider `COC(=O)N/N=C/c1c[n+]([O-])c2ccccc2[n+]1[O-]` [CARBADOX], for which, under “NINDS set screen”, the inhibition stood at 12%. On the same count and under the same terms, in the case of `Nc1ccc(S(=O)(=O)Nc2ccnn2-c2ccccc2)cc1` [SULFAPHENAZOLE] it was 0.104%. Turning to `CC(C(=O)O)c1cccc(Oc2ccccc2)c1` (centres unmarked) [FENOPROFEN], the inhibition at 20000 µM was found to be 6%. Turning to `Cc1c(Cl)cccc1Nc1ccccc1C(=O)O` [TOLFENAMIC ACID], the inhibition under setting [1] worked out at 4.68%. Turning to `CO[C@H]1C[C@H](O[C@@H]2/C(C)=C/C[C@@H]3C[C@@H](C[C@]4(CC[C@H](C)[C@@H](C5CCCCC5)O4)O3)OC(=O)[C@@H]3C=C(C)/C(=N/O)[C@H]4OC/C(=C\C=C\[C@@H]2C)[C@]43O)O[C@@H](C)[C@@H]1O` [SELAMECTIN], the “20mM inhibition LmjIPCS” value is recorded as 45%. `O[C@@H]1CCCC[C@H]1N1CCC(c2ccccc2)CC1` (racemic) [VESAMICOL]: the inhibition at 20000 µM was found to be 14%. The same measure, in the same setting: the value for `COc1cc([C@@H]2c3cc4c(c(O)c3C[C@H]3COC(=O)[C@@H]32)OCO4)cc(OC)c1OC` [beta-PELTATIN] was -1.86%; that for `COc1cc(/C=C/C(=O)CC(=O)/C=C/c2ccc(O)c(OC)c2)ccc1O` [CURCUMIN] was -10%. For the compound `O=C1C=CC(=O)c2c(O)cccc21` [JUGLONE], the “20mM inhibition LmjIPCS” value is on record as 48%. Consider `CC(C)[N+](C)(CCOC(=O)C1c2ccccc2Oc2ccccc21)C(C)C` [PROPANTHELINE BROMIDE], for which the “20mM inhibition LmjIPCS” value under setting [2] came to 35%.

On to `Cc1cc(O)ccc1Cl` [CHLOROCRESOL], for which the “20mM inhibition LmjIPCS” value is reported as 49%. Turning to `COc1cc(N)c(Cl)cc1C(=O)NC1CCN(Cc2ccccc2)CC1` [CLEBOPRIDE], under setting [2], the “20mM inhibition LmjIPCS” value amounted to 47%.

`COC(=O)Nc1nc2ccc([S+]([O-])c3ccccc3)cc2[nH]1` (centres unmarked) [OXFENDAZOLE]: the inhibition under setting [1] was 10%. For `N[C@@H](CCC(=O)N[C@@H](CS)C(=O)NCC(=O)O)C(=O)O` [GLUTATHIONE], the inhibition at 20000 µM is -0.349%. Turning to `C[C@]12CC[C@@H]3c4ccc(O)cc4CC[C@H]3[C@@H]1CCC2=O` [ESTRONE], the inhibition at 20000 µM worked out at 1.15%.

With `NS(=O)(=O)c1cc2c(cc1Cl)N=CNS2(=O)=O` [CHLOROTHIAZIDE], the “20mM inhibition LmjIPCS” value came out at 51%. Turning to `NNc1nncc2ccccc12` [HYDRALAZINE], the inhibition at 20000 µM was 15%. As for `CN1CCN(C(c2ccccc2)c2ccccc2)CC1` [CYCLIZINE], the “20mM inhibition LmjIPCS” value was determined as 58%. Take `NC[C@H](O)c1ccc(O)c(O)c1` [NOREPINEPHRINE]: the inhibition at 20000 µM was 12%.

Regarding `COc1ccc2cc1Oc1ccc(cc1)C[C@H]1c3cc(c(OC)cc3CCN1C)Oc1c(OC)c(OC)cc3c1[C@H](C2)N(C)CC3` [TETRANDRINE], the “20mM inhibition LmjIPCS” value amounted to 65%.

Regarding `NC(=O)C[S+]([O-])C(c1ccccc1)c1ccccc1` (centres unmarked) [MODAFINIL], the inhibition at 20000 µM is 13%. On the same count and under the same terms, the value for `CO[C@@H]1[C@@H](OC(N)=O)[C@@H](O)[C@H](Oc2ccc3c(O)c(NC(=O)c4ccc(O)c(CC=C(C)C)c4)c(=O)oc3c2C)OC1(C)C` [NOVOBIOCIN] was 16%. As to `CCN(CC)CCNC(=O)COc1ccc(OC)cc1` [MEFEXAMIDE], the inhibition (NINDS set screen) came to 13%.

In the case of `C=CCSCC1Nc2cc(Cl)c(S(N)(=O)=O)cc2S(=O)(=O)N1` (centres unmarked) [ALTHIAZIDE], for the setting “NINDS set screen”, the inhibition worked out at 11%. On to `CC(=O)N[C@@H]1[C@@H](O)[C@H](O)[C@@H](CO)O[C@H]1O` [ACETYLGLUCOSAMINE], for which the “20mM inhibition LmjIPCS” value is recorded as -19%.

Turning to `CC(C)N(CCC(C(N)=O)(c1ccccc1)c1ccccn1)C(C)C` (centres unmarked) [DISOPYRAMIDE], the inhibition is 10%. Take `CC(=O)O[C@H](CC(=O)[O-])C[N+](C)(C)C` [ACETYLCARNITINE]: the inhibition at 20000 µM was -17%. Regarding `CCN(CCO)CCCC(C)Nc1ccnc2cc(Cl)ccc12` (centres unmarked) [HYDROXYCHLOROQUINE], the inhibition (NINDS set screen) is 31%.

Take `CC(=O)S[C@@H]1CC2=CC(=O)CC[C@]2(C)[C@H]2CC[C@@]3(C)[C@@H](CC[C@@]34CCC(=O)O4)[C@H]12` [SPIRONOLACTONE]: the inhibition (NINDS set screen) is -1.06%.

On to `C[N+]1(C)CCCC(OC(=O)C(O)(c2ccccc2)c2ccccc2)C1` (centres unmarked) [MEPENZOLATE BROMIDE], for which the inhibition at 20000 µM was 16%. In the case of `CC(=O)OCC(=O)[C@@]1(O)CC[C@H]2[C@@H]3CCC4=CC(=O)CC[C@]4(C)[C@H]3[C@@H](O)C[C@@]21C` [HYDROCORTISONE ACETATE], the inhibition at 20000 µM was determined as 7%. Regarding `O=C(O)C1=CCCNC1` [GUVACINE], the inhibition (NINDS set screen) came to 14%. On to `CCCCCC1C(=O)CCC1CC(=O)O` (centres unmarked) [DIHYDROJASMONIC ACID], for which the inhibition at 20000 µM stood at 20%. With `Sc1nc2ccccc2s1` [2-MERCAPTOBENZOTHIAZOLE], the inhibition at 20000 µM was found to be 24%.

Consider `CCN(CC)CCNC(=O)c1cc(Cl)c(N)cc1OC` [METOCLOPRAMIDE], for which the inhibition was 6%. Same read-out and setting: in the case of `NCCCCC(=O)O` [5-AMINOPENTANOIC ACID] it was -2.68%. For `Cn1c(=O)[nH]c2nc[nH]c2c1=O` [1-METHYLXANTHINE], the inhibition under setting [1] came out at 11%. `NC(Cc1ccc(Cl)cc1)C(=O)O` (centres unmarked) [p-CHLOROPHENYLALANINE]: the “20mM inhibition LmjIPCS” value (single concentration 20mM as printed, screening of NINDS set, sheet Screen 1) is listed as 4%.

In the case of `C[C@]12CCC(=O)C(O)=C1CC[C@@H]1[C@@H]2CC[C@]2(C)C(=O)CC[C@@H]12` [FORMESTANE], the inhibition at 20000 µM turned out to be 18%.

Consider `COc1c(OC)c2occc2c2oc(=O)ccc12` [PIMPINELLIN], for which the inhibition (NINDS set screen) was found to be 18%. With `CC=CC(=O)N(CC)c1ccccc1C` (mixture of isomers) [CROTAMITON], the inhibition at 20000 µM came to 22%.

Consider `COc1cc2cc3c4cc(OC)c(OC)cc4cc[n+]3c(C)c2cc1OC` [CORALYNE], for which the inhibition (NINDS set screen) is -5%. `CCn1nc(C(=O)O)c(=O)c2cc3c(cc21)OCO3` [CINOXACIN]: the “20mM inhibition LmjIPCS” value is 53%.

For the compound `C[C@]12CCC(=O)C=C1C=C[C@@H]1[C@@H]2CC[C@@]2(C)[C@H]1CC[C@@]21CCC(=O)O1` [CANRENONE], the inhibition at 20000 µM was 12%. In the case of `COc1ccc2cc1Oc1ccc(cc1)C[C@H]1c3c(cc4c(c3Oc3cc5c(cc3OC)CCN(C)[C@@H]5C2)OCO4)CCN1C` [CEPHARANTHINE], the “20mM inhibition LmjIPCS” value stood at 59%.

For `CN(C)CCCO[C@@H]1[C@H]2OC(C)(C)O[C@H]2O[C@@H]1[C@H](O)CO` [AMIPRILOSE], the inhibition under setting [1] amounted to 4%. For the compound `CN1CCN(C2=Nc3ccccc3Oc3ccc(Cl)cc32)CC1` [LOXAPINE], the “20mM inhibition LmjIPCS” value stood at 68%. Turning to `CC[C@@H](C(=O)[C@@H](C)[C@@H](O)[C@H](C)[C@@H]1O[C@@H]([C@@H](CC)C(=O)O)CC[C@@H]1C)[C@H]1O[C@]2(C=C[C@@H](O)[C@]3(CC[C@@](C)([C@H]4CC[C@](O)(CC)[C@H](C)O4)O3)O2)[C@H](C)C[C@@H]1C` [SALINOMYCIN], the inhibition at 20000 µM worked out at 29%. The same measure, in the same setting: in the case of `CC(=O)OCC(=O)[C@@]1(O)[C@H](C)C[C@H]2[C@@H]3CCC4=CC(=O)C=C[C@]4(C)[C@@]3(F)[C@@H](O)C[C@@]21C` [DEXAMETHASONE ACETATE] it was -3.4%. For `CCC(C(N)=O)c1ccccc1` (centres unmarked) [FENBUTYRAMIDE], the inhibition under setting [1] was 9%. On to `Nc1ncn([C@@H]2O[C@H](CO)[C@@H](O)[C@H]2O)c(=O)n1` [AZACITIDINE], for which the inhibition was found to be 12%. For `Nc1nc(=O)c2nc(CNc3ccc(C(=O)N[C@@H](CCC(=O)O)C(=O)O)cc3)cnc2[nH]1` [FOLIC ACID], the inhibition is 5.56%. For `CC(=O)OCC(=O)[C@@]1(O)CC[C@H]2[C@@H]3CCC4=CC(=O)C=C[C@]4(C)[C@H]3[C@@H](O)C[C@@]21C` [PREDNISOLONE ACETATE], the inhibition at 20000 µM amounted to 25%.

For `Cc1noc(NS(=O)(=O)c2ccc(N)cc2)c1C` [SULFISOXAZOLE], the inhibition was 20%. Take `Cc1cc(C)cc(OCC2CNC(=O)O2)c1` (centres unmarked) [METAXALONE]: where the note is “NINDS set screen”, the inhibition was -4.75%. Turning to `OCc1ccccc1O[C@@H]1O[C@H](CO)[C@@H](O)[C@H](O)[C@H]1O` [SALICIN], the inhibition at 20000 µM was found to be 14%. For the compound `CC[C@@]1(O)C[C@H](O[C@H]2C[C@H](N(C)C)[C@H](O)[C@H](C)O2)c2c(cc3c(c2O)C(=O)c2c(O)cccc2C3=O)[C@H]1C(=O)OC` [AKLAVINE], the “20mM inhibition LmjIPCS” value was determined as 59%. On to `CC(C)NCC(O)COc1ccc(CC(N)=O)cc1` (centres unmarked) [ATENOLOL], for which the inhibition at 20000 µM is -6%. For the compound `COc1ccc(Cc2nccc3cc(OC)c(OC)cc23)cc1OC` [PAPAVERINE], the inhibition at 20000 µM was 21%.

On to `COc1ccc(/C=C/c2cc(O)cc(O[C@@H]3O[C@H](CO)[C@@H](O)[C@H](O)[C@H]3O)c2)cc1O` [RHAPONTIN], for which the inhibition under setting [1] came to 3%. For the compound `CC(CN(C)C)CN1c2ccccc2CCc2ccccc21` (centres unmarked) [TRIMIPRAMINE], the inhibition under setting [1] stood at 2%.

Regarding `CCCCCCc1ccc(O)cc1O.Nc1c2ccccc2nc2ccccc12` [ACRISORCIN], the “20mM inhibition LmjIPCS” value amounted to 30%. `O=C(O)c1cc(/N=N/c2ccc(S(=O)(=O)Nc3ccccn3)cc2)ccc1O` [SULFASALAZINE]: the inhibition worked out at 1.8%. As for `O=C1C[C@@H](c2ccccc2)Oc2cc(O)cc(O)c21` [PINOCEMBRIN], the “20mM inhibition LmjIPCS” value under setting [2] amounted to 35%. For the compound `C1N2CN3CN1CN(C2)C3` [METHENAMINE], under setting [1], the inhibition was found to be 6%. Regarding `COc1cc2c(cc1OC)-c1cc3ccc(OC)c(OC)c3c[n+]1CC2` [PALMATINE], the “20mM inhibition LmjIPCS” value came to 8%.

(Values after PMC7802075 (ACS Infectious Diseases, 2020).)
